Molecules are shown by their SMILES. Values joined by “and” are separate entries in the source; they are usually repeats but may differ in a detail not shown here. Identical values can stand only once.

The values that follow come from PMC9369311, “Examination of Intracellular GPCR-Mediated Signaling with High Temporal Resolution” (International Journal of Molecular Sciences, 2022).

The target of the experiment is T1, DmOctα1B receptor (Drosophila melanogaster, UniProt Q7JQF1).
T1 construct: expressed in transfected cells
T1 sequence (Q7JQF1 1-645): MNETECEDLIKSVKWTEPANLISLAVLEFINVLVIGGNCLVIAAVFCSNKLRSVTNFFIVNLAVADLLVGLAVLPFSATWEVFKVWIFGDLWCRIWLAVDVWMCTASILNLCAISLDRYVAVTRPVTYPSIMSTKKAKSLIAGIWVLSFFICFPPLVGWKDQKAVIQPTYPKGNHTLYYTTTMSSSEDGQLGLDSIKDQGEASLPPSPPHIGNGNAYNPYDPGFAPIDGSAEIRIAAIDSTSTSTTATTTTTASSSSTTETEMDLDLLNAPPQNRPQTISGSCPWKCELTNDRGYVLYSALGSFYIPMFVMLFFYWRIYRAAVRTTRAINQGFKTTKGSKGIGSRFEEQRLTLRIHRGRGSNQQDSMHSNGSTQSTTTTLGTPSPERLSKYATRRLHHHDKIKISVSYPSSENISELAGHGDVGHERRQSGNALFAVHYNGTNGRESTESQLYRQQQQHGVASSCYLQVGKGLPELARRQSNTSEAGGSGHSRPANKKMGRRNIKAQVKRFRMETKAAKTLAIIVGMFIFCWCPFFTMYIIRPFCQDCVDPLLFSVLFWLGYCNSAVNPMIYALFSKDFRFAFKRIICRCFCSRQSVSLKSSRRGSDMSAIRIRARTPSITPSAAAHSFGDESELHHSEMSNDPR
The experiment can be described thus: Stopped-flow Ca2+ fluorescence measurements, DmOctα1B-expressing HEK293 cells. The format is cell-based. The settings on record: for response time: Fluo-4 or GCaMP3.0. The method, then: As described for the fluorimetric measurements performed in 96 well plates, the stimulation of the DmOctα1B receptors with octopamine results in an efflux of Ca^2+ from the intracellular stores, which was now analyzed by stopped-flow experiments with high temporal resolution. The cells loaded with Fluo-4 or constitutively expressing GCaMP3.0 were diluted in extracellular solution (ES) to a density of 1 × 10^6 cells/mL prior to application to the stopped-flow system. The cells were mixed with increasing ligand concentrations and the fluorescence signals were monitored for 40 s (Figure 3). The increasing ligand concentrations lead to a rise in the fluorescence intensities. The initial Ca^2+ responses were detected at 1 nM octopamine and saturated at ligand concentrations ≥ 30 nM. After reaching a maximum, the fluorescence intensities decreased (Figure 3A1). This effect was more pronounced for concentrations ≤ 30 nM. In the cells expressing GCaMP3.0 (DmOctα1B-GCaMP3.0), additional increases in Ca^2+ were resolved (Figure 3B1), probably monitoring the Ca^2+ oscillations that are known to be induced upon DmOctα1B activation. To determine the ligand affinities for the receptor, the maximal fluorescence intensities were plotted against the octopamine concentrations. […] The EC50 values were obtained from nonlinear fitting of the data, using GraphPad Prism v5.04. […] Besides the determination of the EC50 values, information about reaction velocities could be gained when analyzing the first 4 s of the measurements. The increasing octopamine concentrations correlated with faster signal detection (Figure 3A2,B2). […] The reaction velocities in a concentration range from 3 nM to 300 nM octopamine were almost identical for the Fluo-4-loaded and the GCaMP3.0-expressing cells.
For the stopped-flow measurements, the SFM-400 system (BioLogic, Münster, Germany) was used. The main component of the stopped-flow setup is the SFM-400 module with four 10 mL syringes, which can be filled by external valves. The syringes are driven by step motors. The reactants can be mixed in three individual mixing chambers (M1–M3). The volume between M1 and M2 is 21 µL, and 31 µL between M2 and M3. The observation chamber is a quartz cuvette (FC-15) with a reaction volume of 31 µL, installed behind M3. To avoid fluctuations of the reaction mixture in the cuvette, which might lead to noisy and inconsistent signals, a hard stop valve located behind the cuvette can be closed after injection of the reactants. The stopped-flow module is controlled via a MPS-60 control unit (BioLogic). Data acquisition and operation of the system were performed with the Bio-Kine 32 v4.74 software (BioLogic).
The reactions in the cuvette were analyzed via the changes in the fluorescence. A 150 W Xe/Hg-lamp (ALX-220; BioLogic) was used as a light source for the excitation. The excitation light was guided via a light guide towards the cuvette. To determine the wavelength of the excitation light, a 482 nm bandpass filter (482/35 nm BrightLine® single-band bandpass filter; Semrock, Rochester, NY, USA) was used. A heat protection filter (3 mm; KG1, Schott; Mainz, Germany) was placed between the Xe/Hg-lamp and the excitation filter. The fluorescence was detected with a photomultiplier (PMS 200, BioLogic) installed rectangularly to the light path of the excitation light. Between the cuvette and the photomultiplier tube a 535 nm bandpass emission filter (XF3007 535AF35; Horiba, Oberursel, Germany) was placed to select for the emission light being detected by the photomultiplier. A voltage of 600 V was applied to the photomultiplier.
The fluorescence measurements were performed either directly with the cells expressing GCaMP3.0 or after loading the cells with Fluo-4-AM. Changes in the intracellular Ca^2+ were induced by stimulating the cells with a concentration series of different ligands. In the stopped-flow module, four different solutions can be mixed. […]

Turning to `NCC(O)c1ccc(O)cc1` (stereo not drawn) [octopamine], the response time was ~ 2 s and 2 s (low ligand concentrations ≤ 3 nM (1 nM elsewhere in the source)); ~ 300 ms and ≈ 350 ms (saturating octopamine concentrations (≥30 nM; 300 nM)). In addition, the “Signal Response Time” value is listed as 0.35 ± 0.04 s (saturating concentration, DmOctα1B cells loaded with Fluo-4, mean ± SEM); 0.36 ± 0.05 s (saturating concentration, DmOctα1B-GCaMP3.0 cells, mean ± SEM); 0.35 s (saturating ligand concentration, DmOctα1B cell lines, Fluo-4 and GCaMP3.0). Besides, the “concentration at which initial Ca2+ responses were detected” value (stopped-flow, DmOctα1B cells) stood at 1 nM. The “ligand concentration at which Ca2+ responses saturated” value (stopped-flow, DmOctα1B cells) is at least 30 nM. Moreover, the concentration for a half-maximal effect (EC50) (stopped-flow, DmOctα1B cells loaded with Fluo-4, mean ± SEM) is 2.25 nM and 2.3 nM; the midpoint of the response (stopped-flow, DmOctα1B-GCaMP3.0 cells, mean ± SEM), the EC50, lay at 1.7 ± 0.1 nM.
